# Measured values from patent US20260248879A1, “METHODS OF USING A GCG/GLP1 CO-AGONIST FOR THERAPY” (ELI LILLY AND COMPANY, priority 2022, published 2026).
# Marks after values point to notes of the source that are not given here.
# Legend:
# patients with T2DM [1] = test: Example 1 study: HbA1c; format: in vivo, human
# Text: This study is a Phase 1, single-site, patient- and investigator-blinded, placebo controlled, randomized, non-crossover, multiple-ascending dose study with titration in each cohort in patients with T2DM to investigate the safety, tolerability, PK, and PD of the GLP-1/glucagon co-agonist peptide of SEQ ID NO:1 (Compound 1) administered as multiple SC injections QW for 12 weeks in Cohort 1 and 16 weeks in Cohort 2.
# The first dosing regimen (also referred to as Cohort 1) is 12 weeks in duration and requires dose increments of 1.5 mg starting from 1.5 mg: • 1.5 mg QW Compound 1 for 4 weeks; • 3.0 mg QW Compound 1 for 4 weeks; and • 4.5 mg QW Compound 1 for 4 weeks.
# The second dosing regimen (also referred to as Cohort 2) is 16 weeks in duration and requires dose increments of 2 mg starting from 2 mg: • 2 mg QW Compound 1 for 3 weeks; • 4 mg QW Compound 1 for 3 weeks; • 6 mg QW Compound 1 for 3 weeks; • 8 mg QW Compound 1 for 3 weeks; and • 10 mg QW Compound 1 for 4 weeks.
# In respect of Cohort 1, HbA1c levels are determined at baseline and Days 1, 29, 57 and 78. In respect of Cohort 2, HbA1c is measured at baseline and Days 1, 22, 43, 64, 85 and 106.
# patients with T2DM [2] = test: Example 1 study: fasting pharmacodynamic markers (glucose, insulin, C-peptide, glucagon, lipids, HOMA indices); format: in vivo, human; settings: for mean HOMA-B index: baseline 9.108
# Protocol: Fasting plasma samples for glucose and insulin are explored as secondary PD markers. Exploratory PD may include, but are not limited to plasma glucagon, C-peptide, native OXM, lipid panel (triglycerides, total cholesterol, low-density lipoprotein cholesterol, and high-density lipoprotein cholesterol), beta cell function, and homeostatic model assessment (HOMA) indices.
# Plasma concentrations of at least glucose, glucagon, insulin, C-peptide and native OXM, are assayed using validated analytical methods.
# In respect of Cohort 1, PD sampling occurs at baseline and Days 1, 3 (48 hours post administration of Compound 1), 8, 22, 29, 50, 57, 78 and 80. […]
# [3] = Cohort 1, escalated to 4.5 mg, Day 78 and Day 80
# [4] = Cohort 1, escalated to 4.5 mg, Day 80
# [5] = Cohort 2, escalated to 6.0 mg, Day 64
# [6] = Cohort 2, escalated to 8.0 mg, Day 85
# [7] = Cohort 2, escalated to 10.0 mg, Day 106 and Day 108
# [8] = Cohort 2, escalated to 10.0 mg, Day 108
smiles,measurement,setting,value
CC(C)C[C@H](NC(=O)[C@H](CC(C)C)NC(=O)[C@H](Cc1c[nH]c2ccccc12)NC(=O)[C@H](CCC(=O)O)NC(=O)[C@@H](NC(=O)[C@H](Cc1ccccc1)NC(=O)[C@H](CCC(=O)O)NC(=O)[C@H](CCCCNC(=O)COCCOCCNC(=O)COCCOCCNC(=O)CC[C@H](NC(=O)CCCCCCCCCCCCCCCCCCC(=O)O)C(=O)O)NC(=O)[C@H](C)NC(=O)[C@H](CCCCN)NC(=O)[C@H](CCCCN)NC(=O)[C@H](CCC(=O)O)NC(=O)[C@H](CC(=O)O)NC(=O)[C@H](CC(C)C)NC(=O)[C@H](Cc1ccc(O)cc1)NC(=O)[C@H](CCCCN)NC(=O)[C@H](CO)NC(=O)[C@H](Cc1ccc(O)cc1)NC(=O)[C@H](CC(=O)O)NC(=O)[C@H](CO)NC(=O)[C@@H](NC(=O)[C@H](Cc1ccccc1)NC(=O)[C@@H](NC(=O)CNC(=O)[C@H](CCC(N)=O)NC(=O)C(C)(C)NC(=O)[C@@H](N)Cc1c[nH]cn1)[C@@H](C)O)[C@@H](C)O)C(C)C)C(=O)N[C@@H](CCC(=O)O)C(=O)NCC(=O)NCC(=O)N1CCC[C@H]1C(=O)N[C@@H](CO)C(=O)N[C@@H](CO)C(=O)NCC(N)=O [Compound 1],Change from Baseline in HbA1c,"patients with T2DM [1]; Cohort 1 (1.5-4.5 mg QW), Day 29, baseline 8.52",−0.70* %
same,Change from Baseline in HbA1c,"patients with T2DM [1]; Cohort 1, Day 57, baseline 8.52",−1.45* %
same,Change from Baseline in HbA1c,"patients with T2DM [1]; Cohort 1, Day 78, baseline 8.52",−1.80* %
same,Change from Baseline in HbA1c,"patients with T2DM [1]; Cohort 1, Day 106 (28 days after last dose), baseline 8.52",−2.03* %
same,HbA1c decrease from baseline compared to placebo,"patients with T2DM [1]; Cohort 1 and Cohort 2, Day 57 until Day 134",Statistically significant decreases
same,Change from Baseline in HbA1c,"patients with T2DM [1]; Cohort 2 (2-10 mg QW), Day 43, baseline 8.08",−0.83* %
same,Change from Baseline in HbA1c,"patients with T2DM [1]; Cohort 2, Day 64, baseline 8.08",−1.35* %
same,Change from Baseline in HbA1c,"patients with T2DM [1]; Cohort 2, Day 85, baseline 8.08",−1.50* %
same,Change from Baseline in HbA1c,"patients with T2DM [1]; Cohort 2, Day 106, baseline 8.08",−1.67* %
same,mean fasting glucagon,"patients with T2DM [2]; Cohort 1, escalated to 4.5 mg, Day 78, baseline 14.79 pmol/L",6.65 pmol/L
same,mean fasting C-peptide,"patients with T2DM [2]; Cohort 1, escalated to 4.5 mg, Day 78, baseline 667 pmol/L",820 pmol/L
same,mean fasting triglyceride,"patients with T2DM [2]; Cohort 1, escalated to 4.5 mg, Day 78, baseline 2.938",1.456 mmol/L
same,mean HOMA-IR index,"patients with T2DM [2]; Cohort 1, escalated to 4.5 mg, Day 78, baseline 4.704",4.289
same,mean fasting total cholesterol,"patients with T2DM [2]; Cohort 1, escalated to 4.5 mg, Day 78, baseline 5.065",4.275 mmol/L
same,mean fasting insulin,"patients with T2DM [2]; Cohort 1, escalated to 4.5 mg, Day 78, baseline 9.648",13.362 mIU/L
same,approximate decrease of HOMA-IR from baseline,patients with T2DM [2]; [3],~9%
same,approximate decrease of fasting LDL cholesterol from baseline,patients with T2DM [2]; [3],~10%
same,approximate decrease of fasting glucagon from baseline,patients with T2DM [2]; [3],45-55%
same,approximate decrease of fasting total cholesterol from baseline,patients with T2DM [2]; [3],12-16%
same,approximate decrease of fasting triglyceride from baseline,patients with T2DM [2]; [3],29-50%
same,approximate increase of fasting C-peptide from baseline,patients with T2DM [2]; [3],22-31%
same,approximate increase of fasting insulin from baseline,patients with T2DM [2]; [3],38-46%
same,mean fasting LDL cholesterol,"patients with T2DM [2]; Cohort 1, escalated to 4.5 mg, Day 78 and Day 80, baseline 2.852",2.56 mmol/L
same,approximate increase of HOMA-B from baseline,patients with T2DM [2]; [4],~145%
same,approximate reduction of mean fasting glucose from baseline,patients with T2DM [2]; [4],~40%
same,mean fasting glucagon,"patients with T2DM [2]; Cohort 1, escalated to 4.5 mg, Day 80, baseline 14.79 pmol/L",8.19 pmol/L
same,mean fasting C-peptide,"patients with T2DM [2]; Cohort 1, escalated to 4.5 mg, Day 80, baseline 667 pmol/L",875 pmol/L
same,mean fasting triglyceride,"patients with T2DM [2]; Cohort 1, escalated to 4.5 mg, Day 80, baseline 2.938",2.084 mmol/L
same,mean fasting total cholesterol,"patients with T2DM [2]; Cohort 1, escalated to 4.5 mg, Day 80, baseline 5.065",4.461 mmol/L
same,mean fasting insulin,"patients with T2DM [2]; Cohort 1, escalated to 4.5 mg, Day 80, baseline 9.648",14.046 mIU/L
same,mean fasting glucose,"patients with T2DM [2]; Cohort 1, escalated to 4.5 mg, Day 80, baseline 10.78",6.52 mmol/L
same,approximate decrease of fasting glucagon from baseline,"patients with T2DM [2]; Cohort 2, escalated to 6.0 mg",~63%
same,approximate increase of fasting C-peptide from baseline,"patients with T2DM [2]; Cohort 2, escalated to 6.0 mg",~12%
same,approximate increase of fasting insulin from baseline,"patients with T2DM [2]; Cohort 2, escalated to 6.0 mg",~14%
same,approximate decrease of HOMA-IR from baseline,patients with T2DM [2]; [5],~20%
same,approximate decrease of fasting LDL cholesterol from baseline,patients with T2DM [2]; [5],~29%
same,approximate decrease of fasting total cholesterol from baseline,patients with T2DM [2]; [5],~26%
same,approximate decrease of fasting triglyceride from baseline,patients with T2DM [2]; [5],~43%
same,approximate increase of HOMA-B from baseline,patients with T2DM [2]; [5],~76%
same,mean fasting triglyceride,"patients with T2DM [2]; Cohort 2, escalated to 6.0 mg, Day 64, baseline 1.867",1.055 mmol/L
same,mean HOMA-IR index,"patients with T2DM [2]; Cohort 2, escalated to 6.0 mg, Day 64, baseline 2.7",2.158
same,mean fasting LDL cholesterol,"patients with T2DM [2]; Cohort 2, escalated to 6.0 mg, Day 64, baseline 2.796",1.997 mmol/L
same,mean fasting total cholesterol,"patients with T2DM [2]; Cohort 2, escalated to 6.0 mg, Day 64, baseline 4.971",3.673 mmol/L
same,mean HOMA-B index,patients with T2DM [2]; [5],16.072
same,mean fasting insulin,"patients with T2DM [2]; Cohort 2, escalated to 6.0 mg, baseline 5.892",6.73 mIU/L
same,mean fasting glucagon,"patients with T2DM [2]; Cohort 2, escalated to 6.0 mg, baseline 9.83",3.65 pmol/L
same,mean fasting C-peptide,"patients with T2DM [2]; Cohort 2, escalated to 6.0 mg, baseline 532.8",597 pmol/L
same,approximate increase of fasting C-peptide from baseline,"patients with T2DM [2]; Cohort 2, escalated to 8.0 mg",approximately 2%
same,approximate increase of fasting insulin from baseline,"patients with T2DM [2]; Cohort 2, escalated to 8.0 mg",~12%
same,mean fasting glucagon,"patients with T2DM [2]; Cohort 2, escalated to 8.0 mg, Day 80 (so in the source), baseline 9.83",2 pmol/L
same,approximate decrease of HOMA-IR from baseline,patients with T2DM [2]; [6],approximately 27%
same,approximate decrease of fasting LDL cholesterol from baseline,patients with T2DM [2]; [6],approximately 30%
same,approximate decrease of fasting total cholesterol from baseline,patients with T2DM [2]; [6],approximately 27%
same,approximate decrease of fasting triglyceride from baseline,patients with T2DM [2]; [6],approximately 54%
same,approximate increase of HOMA-B from baseline,patients with T2DM [2]; [6],approximately 83%
same,mean fasting triglyceride,"patients with T2DM [2]; Cohort 2, escalated to 8.0 mg, Day 85, baseline 1.867",0.855 mmol/L
same,mean HOMA-IR index,"patients with T2DM [2]; Cohort 2, escalated to 8.0 mg, Day 85, baseline 2.7",1.976
same,mean fasting LDL cholesterol,"patients with T2DM [2]; Cohort 2, escalated to 8.0 mg, Day 85, baseline 2.796",1.954 mmol/L
same,mean fasting total cholesterol,"patients with T2DM [2]; Cohort 2, escalated to 8.0 mg, Day 85, baseline 4.971",3.614 mmol/L
same,mean HOMA-B index,patients with T2DM [2]; [6],16.689
same,mean fasting insulin,"patients with T2DM [2]; Cohort 2, escalated to 8.0 mg, baseline 5.892",6.589 mIU/L
same,mean fasting C-peptide,"patients with T2DM [2]; Cohort 2, escalated to 8.0 mg, baseline 532.8",542 pmol/L
same,approximate decrease of fasting C-peptide from baseline,"patients with T2DM [2]; Cohort 2, escalated to 10.0 mg",~18%
same,approximate decrease of fasting insulin from baseline,"patients with T2DM [2]; Cohort 2, escalated to 10.0 mg",~20%
same,approximate decrease of fasting total cholesterol from baseline,"patients with T2DM [2]; Cohort 2, escalated to 10.0 mg",~31%
same,mean fasting triglyceride,"patients with T2DM [2]; Cohort 2, escalated to 10.0 mg, Day 106, baseline 1.867",0.86 mmol/L
same,mean fasting LDL cholesterol,"patients with T2DM [2]; Cohort 2, escalated to 10.0 mg, Day 106, baseline 2.796",1.859 mmol/L
same,mean fasting total cholesterol,"patients with T2DM [2]; Cohort 2, escalated to 10.0 mg, Day 106, baseline 4.971",3.454 mmol/L
same,mean fasting insulin,"patients with T2DM [2]; Cohort 2, escalated to 10.0 mg, Day 106, baseline 5.892",5.355 mIU/L
same,mean fasting glucagon,"patients with T2DM [2]; Cohort 2, escalated to 10.0 mg, Day 106, baseline 9.83",1.98 pmol/L
same,mean fasting C-peptide,"patients with T2DM [2]; Cohort 2, escalated to 10.0 mg, Day 106, baseline 532.8",511 pmol/L
same,approximate decrease of fasting LDL cholesterol from baseline,patients with T2DM [2]; [7],33-34%
same,approximate decrease of fasting triglyceride from baseline,patients with T2DM [2]; [7],47-54%
same,approximate decrease of HOMA-IR from baseline,patients with T2DM [2]; [8],~51%
same,approximate increase of HOMA-B from baseline,patients with T2DM [2]; [8],~33%
same,approximate reduction of mean fasting glucose from baseline,patients with T2DM [2]; [8],~43%
same,mean fasting triglyceride,"patients with T2DM [2]; Cohort 2, escalated to 10.0 mg, Day 108, baseline 1.867",0.985 mmol/L
same,mean fasting LDL cholesterol,"patients with T2DM [2]; Cohort 2, escalated to 10.0 mg, Day 108, baseline 2.796",1.849 mmol/L
same,mean fasting total cholesterol,"patients with T2DM [2]; Cohort 2, escalated to 10.0 mg, Day 108, baseline 4.971",3.441 mmol/L
same,mean fasting insulin,"patients with T2DM [2]; Cohort 2, escalated to 10.0 mg, Day 108, baseline 5.892",4.74 mIU/L
same,mean fasting glucagon,"patients with T2DM [2]; Cohort 2, escalated to 10.0 mg, Day 108, baseline 9.83",1.93 pmol/L
same,mean fasting glucose,"patients with T2DM [2]; Cohort 2, escalated to 10.0 mg, Day 108, baseline 10.46",5.91 mmol/L
same,mean fasting C-peptide,"patients with T2DM [2]; Cohort 2, escalated to 10.0 mg, Day 108, baseline 532.8",435 pmol/L
same,mean fasting HDL levels,"patients with T2DM [2]; Cohort 2, over the dosing period (FIG. 7c)",decreased from baseline
same,reduction of fasting LDL cholesterol,patients with T2DM [2]; dose 8.0 mg or higher,≥ 30%
same,reduction of fasting insulin resistance indices,patients with T2DM [2]; dose 10 mg or greater,50%
same,reduction of fasting insulin resistance indices,patients with T2DM [2]; dose greater than 6.0 mg,greater than 25%
same,reduction of fasting plasma glucagon,patients with T2DM [2]; dose greater than 6.0 mg,approximately 80%
same,reduction of fasting triglyceride,patients with T2DM [2]; dose greater than 6.0 mg,≥ 50%
same,reduction of fasting total cholesterol,patients with T2DM [2]; dose greater than 8.0 mg,more than 30%
